According to patent publication US10314816B2, “Antimicrobial compounds, compositions and methods of use thereof” (Wisconsin Alumni Research Foundation, priority 2012, dated 2019):

Experiments:
MipZ-YFP = experiment: Effects of compounds on MipZ localization; type: cell-based, Caulobacter crescentus; settings: DCAP 20 μM, 20 min after treating C. crescentus cells; p=0.0002 vs DMSO
Description: Effects of compounds on MipZ localization. A strain of C. crescentus in which MipZ was translationally fused to yellow fluorescent protein (YFP) was used to determine the effect of DCAP on MipZ localization. For experiments with C. crescentus expressing MipZ-YFP, overnight cultures were diluted 10-fold and incubated at least 1 hour prior to treatment with compounds. After adding compounds, cells were incubated at 200 rpm and 30° C. for 20 minutes. Cells were imaged as described above. Following cell segmentation and fluorescence signal calculation in MicrobeTracker, a separate MATLAB script was used to detect signal peaks within an individual cell. The number of total peaks and peak locations were calculated (i.e., poles or mid-cell) for each cell. Poles were defined as 1-25% and 75-100% along the normalized cell length (1-100%). […] After this classification, a contingency table was created with the total number of cells analyzed, and the number of cells with the ‘wildtype’ localization. […]
As a positive control, carbonyl cyanide m-chlorophenyl hydrazone (CCCP) was used. In FIG. 3, ‘wildtype’ (WT) localization was defined as 1) unipolar (a single peak of fluorescence signal at a pole) and 2) bipolar (two peaks at poles). […] At least 69 cells were analyzed for each sample. […]

Vibrio cholera = experiment: MIC of DCAP analogs, LB media, microdilution (CLSI); type: cell-based; settings: Vibrio cholerae
Description: (§1) Luria-Bertani (LB) media (10 g/L tryptone, 10 g/L NaCl, 5 g/L yeast extract, pH 7.0) was used to grow all the strains represented in Tables 5 and 6. All the cultures were grown at 37° C. All the E. coli strains were grown while shaking at 200 rpm and the clinical pathogens were statically incubated.
(§2) For clinical pathogenic organisms including S. typhimurium, V. cholera, S. boydii, K pneumonia, E. aerogenes, A. baumannii, E. tarda, and M. morganii strains, liquid LB media in 96-well microplates (100 μL/well) and the microdilution method from the CLSI guidelines were used.

Shigella boydii = experiment: as above; type: cell-based; settings: microdilution (Table 6)
Description: as §1, §2

Acinetobacter baumannii = experiment: as above; type: cell-based; settings: microdilution (Table 6)
Description: as §1, §2

Salmonella typhimurium = experiment: as above; type: cell-based; settings: Salmonella enterica, microdilution (Table 6)
Description: as §1, §2

Morganella morganii = experiment: as above; type: cell-based; settings: microdilution (Table 6)
Description: as §1, §2

Edwardsiella tarda = experiment: as above; type: cell-based; settings: microdilution (Table 6)
Description: as §1, §2

Klebsiella pneumonia = experiment: as above; type: cell-based; settings: Klebsiella pneumoniae, microdilution (Table 6)
Description: as §1, §2

Enterobacter aerogenes = experiment: as above; type: cell-based; settings: Klebsiella aerogenes, microdilution (Table 6)
Description: as §1, §2

E. aerogenes = experiment: MIC of bacterial growth (Table 2); type: cell-based, Enterobacter aerogenes; settings: Klebsiella aerogenes; E. aerogenes clinical isolate (Table 2)
Description: (§3) Determination of the minimum inhibitory concentration (MIC) of bacterial growth. The MIC of various organisms in liquid media was determined using the macrodilution method according to the NCCLS guidelines. For the starting inoculum, cultures were diluted to contain approximately 5×10^5 cells/mL in growth media. To create a two-fold dilution series for the macrodilution technique, each compound was added to the first culture tube (4 mL total volume) at the highest concentration. 2 mL of this culture was diluted into an equal volume of inoculated media (a two-fold dilution). The final volume for each culture was 2 mL.

E. coli BW25113 ΔtolC [1] = experiment: MIC of bacterial growth, macrodilution (Table 2); type: cell-based, Escherichia coli
Description: (§4) Bacterial strains and growth conditions. Luria-Bertani (LB) media (10 g/L tryptone, 10 g/L NaCl, 5 g/L yeast extract, pH 7.2) was used to grow B. subtilis 168, S. aureus FRI100, and P. aeruginosa K1115 strains. For P. aeruginosa PAO1 and K1119 strains and two E. coli BW25113 strains, M8 minimal media (241 mg/L MgSO4, 4 mg/L glucose, 5 mg/L casamino acids, 12.8 g/L Na2HPO4.7H2O, 3 g/L KH2PO4, and 0.5 g/L NaCl) was used. PYE media (2 g/L peptone, 1 g/L yeast extract, 0.8 mM MgSO4, and 0.5 mM CaCl2) was used for culturing C. crescentus cells at 30° C. All cultures were grown at 37° C., except for C. crescentus (30° C.). All cultures were grown while shaking at 200 rpm.
as §3

E. coli BW25113 ΔtolC [2] = experiment: MIC of DCAP analogs, LB media, macrodilution (CLSI); type: cell-based; settings: Escherichia coli
Description: as §1, with “incubated. […]” for “incubated.”

P. aeruginosa PAO1 = experiment: MIC of bacterial growth, macrodilution (Table 2); type: cell-based; settings: Pseudomonas aeruginosa
Description: as §4, §3

E. coli BW25113 = experiment: MIC of bacterial growth, macrodilution (Table 2); type: cell-based; settings: Escherichia coli
Description: as §4, §3

P. aeruginosa K1119 = experiment: MIC of bacterial growth, macrodilution (Table 2); type: cell-based; settings: Pseudomonas aeruginosa
Description: as §4, §3

P. aeruginosa K1115 = experiment: MIC of bacterial growth, macrodilution (Table 2); type: cell-based; settings: Pseudomonas aeruginosa
Description: as §4, §3

Compound: OCC(CO)(CO)NCC(O)Cn1c2ccc(Cl)cc2c2cc(Cl)ccc21 (stereo not drawn) [DCAP, 2-((3-(3,6-dichloro-9H-carbazol-9-yl)-2-hydroxypropyl)amino)-2-(hydroxymethyl)propane-1,3-diol]
- MipZ-YFP localization (MipZ-YFP): caused MipZ-YFP to mislocalize
- MIC (Vibrio cholera): 50 µM
- MIC (Shigella boydii): 100 µM
- MIC (Acinetobacter baumannii): 200 µM
- MIC (Salmonella typhimurium): 100 µM
- MIC (Morganella morganii): 200 µM
- MIC (Edwardsiella tarda): 100 µM
- MIC (Klebsiella pneumonia): 200 µM
- MIC (Enterobacter aerogenes): 200 µM
- MIC (E. aerogenes): 200 µM
- Reduction of MIC on deleting tolC in E. coli BW25113 (E. coli BW25113 ΔtolC [1]; BW25113 vs BW25113 ΔtolC): 4 fold
- MIC (E. coli BW25113 ΔtolC [1]; Escherichia coli, BW25113): 20 µM
- MIC (E. coli BW25113 ΔtolC [2]; BW25113): 20 µM
- MIC (E. coli BW25113 ΔtolC [2]; BW25113, read-out: MIC (ΔtolC E. coli)): 20 µM
- MIC (P. aeruginosa PAO1): 160 µM
- MIC (E. coli BW25113): 80 µM
- MIC (P. aeruginosa K1119): 160 µM
- MIC (P. aeruginosa K1115): 80 µM
